Reference: ChEMBL document CHEMBL2057120, “Chromatin structure determines accessibility of a hairpin polyamide-chlorambucil conjugate at histone H4 genes in pancreatic cancer cells” (Bioorg Med Chem Lett, 2012)
Activity calls are given as the source filed them. No cut-off for these calls is given here.

Assays:
[1] = system: MIA PaCa-2; test: Downregulation of histone H4C mRNA expression in human MIAPaCa2 cells at 50 uM after 72 hrs by quantitative RT-PCR analysis; assay type: functional, cell-based
[2] = system: HEK293; test: Downregulation of histone H4D mRNA expression in human HEK293 cells at 250 uM after 72 hrs by quantitative RT-PCR analysis; assay type: ADME, cell-based; details: hek293, 72 h
[3] = system: MIA PaCa-2; test: Downregulation of histone H4D mRNA expression in human MIAPaCa2 cells at 50 uM after 72 hrs by quantitative RT-PCR analysis; assay type: functional, cell-based
[4] = system: MIA PaCa-2; test: Downregulation of histone H4AB mRNA expression in human MIAPaCa2 cells at 50 uM after 72 hrs by quantitative RT-PCR analysis; assay type: functional, cell-based
[5] = system: MIA PaCa-2; test: Growth inhibition of human MIAPaCa2 cells after 6 days by MTS assay; assay type: functional; details: MIA PaCa-2, 144 h
[6] = system: MIA PaCa-2; test: Downregulation of histone H4E mRNA expression in human MIAPaCa2 cells at 50 uM after 72 hrs by quantitative RT-PCR analysis; assay type: functional, cell-based
[7] = system: MIA PaCa-2; test: Downregulation of histone 4H4 mRNA expression in human MIAPaCa2 cells at 50 uM after 72 hrs by quantitative RT-PCR analysis; assay type: functional, cell-based
[8] = system: HEK293; test: Downregulation of histone H4A mRNA expression in human HEK293 cells at 250 uM after 72 hrs by quantitative RT-PCR analysis; assay type: ADME, cell-based; details: hek293, 72 h
[9] = system: MIA PaCa-2; test: Downregulation of histone H4H mRNA expression in human MIAPaCa2 cells at 50 uM after 72 hrs by quantitative RT-PCR analysis; assay type: functional, cell-based
[10] = system: MIA PaCa-2; test: Downregulation of histone H4A mRNA expression in human MIAPaCa2 cells at 50 uM after 72 hrs by quantitative RT-PCR analysis; assay type: functional, cell-based
[11] = system: HEK293; test: Downregulation of histone H4C mRNA expression in human HEK293 cells at 250 uM after 72 hrs by quantitative RT-PCR analysis; assay type: ADME, cell-based; details: hek293, 72 h
[12] = Drug uptake in human HEK293 cell nucleus using BODIPY labeled compound at 500 uM after 16 hrs by […] microscopic analysis; assay type: ADME, cell-based; details: hek293, 16 h
[13] = system: HEK293; test: Downregulation of histone 4H4 mRNA expression in human HEK293 cells at 250 uM after 72 hrs by quantitative RT-PCR analysis; assay type: ADME, cell-based; details: hek293, 72 h
[14] = system: HEK293; test: Downregulation of histone H4B mRNA expression in human HEK293 cells at 250 uM after 72 hrs by quantitative RT-PCR analysis; assay type: ADME, cell-based; details: hek293, 72 h
[15] = system: MIA PaCa-2; test: Downregulation of histone HJK mRNA expression in human MIAPaCa2 cells at 50 uM after 72 hrs by quantitative RT-PCR analysis; assay type: functional, cell-based
[16] = system: HEK293; test: Downregulation of histone H4L mRNA expression in human HEK293 cells at 250 uM after 72 hrs by quantitative RT-PCR analysis; assay type: ADME, cell-based; details: hek293, 72 h
[17] = system: HEK293; test: Downregulation of histone H4AB mRNA expression in human HEK293 cells at 250 uM after 72 hrs by quantitative RT-PCR analysis; assay type: ADME, cell-based; details: hek293, 72 h
[18] = system: HEK293; test: Selectivity ratio of GI50 for human HEK293 cells to GI50 for human MIAPaCa2 cells
[19] = system: MIA PaCa-2; test: Downregulation of histone H4L mRNA expression in human MIAPaCa2 cells at 50 uM after 72 hrs by quantitative RT-PCR analysis; assay type: functional, cell-based
[20] = system: MIA PaCa-2; test: Downregulation of histone H4B mRNA expression in human MIAPaCa2 cells at 50 uM after 72 hrs by quantitative RT-PCR analysis; assay type: functional, cell-based
[21] = system: HEK293; test: Downregulation of histone H4E mRNA expression in human HEK293 cells at 250 uM after 72 hrs by quantitative RT-PCR analysis; assay type: ADME, cell-based; details: hek293, 72 h
[22] = system: HEK293; test: Downregulation of histone H4H mRNA expression in human HEK293 cells at 250 uM after 72 hrs by quantitative RT-PCR analysis; assay type: ADME, cell-based; details: hek293, 72 h
[23] = Growth inhibition of human HEK293 cells after 6 days by MTS assay; assay type: cell-based
[24] = system: HEK293; test: Downregulation of histone HJK mRNA expression in human HEK293 cells at 250 uM after 72 hrs by quantitative RT-PCR analysis; assay type: ADME, cell-based; details: hek293, 72 h

CN(C)CCCNC(=O)CCNC(=O)c1cc(NC(=O)c2cc(NC(=O)c3cc(NC(=O)c4cc(NC(=O)[C@@H](CCNC(=O)CCCc5ccc(N(CCCl)CCCl)cc5)NC(=O)c5nc(NC(=O)CCNC(=O)c6nc(NC(=O)c7nccn7C)cn6C)cn5C)cn4C)cn3C)cn2C)cn1C
Activity [1]: Active | Activity [2]: Non-toxic | Activity [3]: Active | Activity [4]: Active | GI50 [5]: 16 nM | Activity [6]: Active | Activity [7]: Active | Activity [8]: Non-toxic | Activity [9]: Active | Activity [10]: Active | Activity [11]: Non-toxic | Drug uptake [12]: Active | Activity [13]: Non-toxic | Activity [14]: Non-toxic | Activity [15]: Active | Activity [16]: Non-toxic | Activity [17]: Non-toxic | RatioGI50 [18]: 25 | Activity [19]: Active | Activity [20]: Active | Activity [21]: Non-toxic | Activity [22]: Non-toxic | GI50 at 144 h [23]: 400 nM | Activity [24]: Non-toxic
